Among the data in PubChem BioAssay (NCI) are TGI and GI50 values, retold here.

Several values for one entry are separate records, joined by “and”; a condition that tells them apart may be missing. Equal values may be shown once.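 Following 48 hours of exposure in 96-well plates, responses at five concentrations were used to interpolate endpoints linearly. Here, GI50 denotes the concentration required for 50% inhibition of growth. TGI marks complete inhibition of growth.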 Where a SMILES comes first, the peptide text is derived from it. The star is where a group is joined. Boc = CC(C)(C)OC(=O)* Bounds are passed on as bounds.

Among the test systems are NCI-H460 lung; SW-620 colon; OVCAR-8 ovarian; M14 melanoma; MALME-3M melanoma; MDA-MB-231 breast; NCI/ADR-RES ovarian; HT29 colon; SK-MEL-28 melanoma; K-562 leukemia; EKVX NSCLC; COLO 205 colon.
Common to all, as to experiment: inhibition of tumour cell growth, NCI panel, 48 h

For `COc1ccc2nc3cccc([N+](=O)[O-])c3c(NCCCO)c2c1`, the TGI with NCI-H460 lung was 0.00233 µM and 0.0153 µM; with SW-620 colon it was 0.0323 µM; with OVCAR-8 ovarian, 0.0132 µM; with M14 melanoma, 0.00227 µM; with MALME-3M melanoma, 0.00344 µM and 0.0202 µM; in the assay with NCI/ADR-RES ovarian, 0.0276 µM and 0.248 µM. Besides, in the assay on HT29 colon, the TGI is 0.00183 µM. Besides, the GI50 was 0.00116 µM in the assay with MALME-3M melanoma; 2.26 µM in the assay with MDA-MB-231 breast; 0.00616 µM and 0.0229 µM with NCI/ADR-RES ovarian.

For the compound `ON=C(CC(O)(C(F)(F)Cl)C(F)(F)Cl)CC(O)(C(F)(F)Cl)C(F)(F)Cl`, the TGI with NCI-H460 lung, in the assay with SK-MEL-28 melanoma, in the assay with SW-620 colon, in the assay with OVCAR-8 ovarian, with MALME-3M melanoma and in the assay on K-562 leukemia was above 10 µM each time. Further, the TGI in the assay on NCI/ADR-RES ovarian, with EKVX NSCLC, in the assay on HT29 colon and in the assay on COLO 205 colon was above 10 µM throughout.

On to `COC(=O)[C@H](Cc1ccc(O)cc1)NC(=O)[C@H](Cc1ccc(O)cc1)NC(=O)OC(C)(C)C` (Boc-Tyr-Tyr-OMe), for which the TGI with NCI-H460 lung, in the assay with OVCAR-8 ovarian, in the assay on M14 melanoma, with MALME-3M melanoma, in the assay with MDA-MB-231 breast and with NCI/ADR-RES ovarian was above 100 µM each time. Besides, the TGI with EKVX NSCLC, with HT29 colon and in the assay on COLO 205 colon was above 100 µM throughout.

As to `COc1ccc(-c2c(C#N)c(S)n(NS(=O)(=O)c3ccccc3)c(=O)c2C#N)cc1`, the TGI in the assay on NCI-H460 lung, with SK-MEL-28 melanoma, with SW-620 colon, in the assay on OVCAR-8 ovarian, in the assay with M14 melanoma and with MALME-3M melanoma was above 100 µM throughout. The TGI in the assay with MDA-MB-231 breast, in the assay on K-562 leukemia, with NCI/ADR-RES ovarian, with HT29 colon and with COLO 205 colon was above 100 µM each time.

For `COc1ccc(/C=C2\C[C@H]3[C@@H]4CCC5=CC(=O)CC[C@]5(C)[C@H]4CC[C@]3(C)C2=O)cc1OC`, the TGI in the assay on NCI-H460 lung, in the assay on SK-MEL-28 melanoma, in the assay on SW-620 colon, in the assay with OVCAR-8 ovarian, in the assay on M14 melanoma and with MALME-3M melanoma was above 100 µM in each case. Further, the TGI in the assay on K-562 leukemia is above 100 µM; with NCI/ADR-RES ovarian, above 100 µM; in the assay with EKVX NSCLC, 61.2 µM; in the assay on HT29 colon it was above 100 µM; in the assay on COLO 205 colon, 9.93 µM.

For `O=C1CC(=O)NC(=NNS(=O)(=O)c2ccc(Cl)cc2)N1`, the TGI in the assay on NCI-H460 lung, with SK-MEL-28 melanoma, with SW-620 colon, with OVCAR-8 ovarian, in the assay on M14 melanoma and with MALME-3M melanoma was above 100 µM throughout. The TGI with MDA-MB-231 breast, in the assay with K-562 leukemia, in the assay with NCI/ADR-RES ovarian, with HT29 colon and in the assay on COLO 205 colon was above 100 µM in each case.

As for `c1ccc2c(c1)OC(N1CCCC1)c1cnc(N3CCOCC3)nc1-2` (stereo unspecified), the TGI in the assay on NCI-H460 lung, in the assay on SK-MEL-28 melanoma, in the assay with SW-620 colon, with OVCAR-8 ovarian, with M14 melanoma and in the assay on MALME-3M melanoma was above 100 µM in each case. In addition, the TGI was above 100 µM in the assay with MDA-MB-231 breast; above 100 µM with K-562 leukemia; 79.4 µM with EKVX NSCLC; above 100 µM with HT29 colon; above 100 µM in the assay on COLO 205 colon.

With `Cc1n(Cc2ccccc2)nc2sc(N)n[n+]12`, the TGI in the assay on SK-MEL-28 melanoma, in the assay on SW-620 colon, in the assay on OVCAR-8 ovarian, in the assay with M14 melanoma, in the assay with MALME-3M melanoma and with K-562 leukemia was above 100 µM in each case. The TGI in the assay with NCI/ADR-RES ovarian, in the assay with EKVX NSCLC, with HT29 colon and with COLO 205 colon was above 100 µM each time.

For the compound `NC(=O)NC12CC3CC(CC(F)(C3)C1)C2`, the TGI in the assay with NCI-H460 lung, in the assay on SK-MEL-28 melanoma, in the assay on SW-620 colon, in the assay on OVCAR-8 ovarian, in the assay with M14 melanoma and with MALME-3M melanoma was above 100 µM in each case. Further, the TGI with K-562 leukemia, in the assay with EKVX NSCLC, with HT29 colon and in the assay with COLO 205 colon was above 100 µM in each case.

Turning to `O=C(CC(Cl)=C(Cl)Cl)c1ccccc1`, the TGI with NCI-H460 lung, in the assay on SK-MEL-28 melanoma, in the assay on SW-620 colon, with OVCAR-8 ovarian, in the assay on M14 melanoma and in the assay with MALME-3M melanoma was above 100 µM throughout. The TGI with MDA-MB-231 breast is above 100 µM; in the assay on K-562 leukemia it was 50 µM; in the assay with NCI/ADR-RES ovarian, above 100 µM; with HT29 colon, above 100 µM; with COLO 205 colon, 78.9 µM.

Take `CC(=O)Oc1ccc2c3c1O[C@H]1[C@H](O)CC[C@@]4(O)[C@@H](C2)N(C)CC[C@]314`: the TGI in the assay on SK-MEL-28 melanoma, in the assay on SW-620 colon, in the assay with OVCAR-8 ovarian, in the assay on M14 melanoma, with MALME-3M melanoma and in the assay on MDA-MB-231 breast was above 100 µM throughout. Besides, the TGI in the assay with NCI/ADR-RES ovarian, in the assay on EKVX NSCLC, in the assay with HT29 colon and in the assay with COLO 205 colon was above 100 µM in each case.

With `CC1(C)N=C(C2CCCN2C(=O)OCc2ccccc2)OC1=O` (stereo unspecified), the TGI in the assay with NCI-H460 lung, in the assay with SK-MEL-28 melanoma, with SW-620 colon, in the assay with OVCAR-8 ovarian, in the assay on M14 melanoma and with MALME-3M melanoma was above 100 µM throughout. Besides, the TGI in the assay with MDA-MB-231 breast, in the assay with K-562 leukemia, in the assay on NCI/ADR-RES ovarian, with HT29 colon and with COLO 205 colon was above 100 µM in each case.

In the case of `C#CC1(O)CCCCCCCCC2(CCCCCCCC1)OCCO2`, the TGI came to 44.2 µM with NCI-H460 lung; 35.1 µM with SK-MEL-28 melanoma; 34.7 µM in the assay on SW-620 colon; 34.4 µM with OVCAR-8 ovarian; 33.9 µM with M14 melanoma; 34.3 µM with MALME-3M melanoma. Further, the TGI with K-562 leukemia amounted to 43.6 µM; in the assay on NCI/ADR-RES ovarian it was 34.7 µM; with EKVX NSCLC, 32.6 µM; in the assay with HT29 colon, 35.4 µM; in the assay on COLO 205 colon, 33.2 µM.
